Laboratory results published in patent US20260085053A1, “BENZOFURAN DERIVATIVES AS SIK INHIBITORS AND THE USE THEREOF” (BEONE MEDICINES I GMBH, priority 2023, published 2026).

Key:
[1] = biological target: T1, SIK1 kinase (aa1-303, Thermo Fisher) (Homo sapiens, UniProt P57059); test: Biochemical activities determination for SIK1 protein (TR-FRET); conditions: 110 uM ATP, 0.5 μM STK1 substrate
T1 construct: SIK1 kinase (aa1-303, Thermo Fisher); purchased Thermo Fisher
Description: 1. Biochemical Activities Determination for SIK1 Protein
(§1) Compounds were tested for inhibition of SIK1 kinase (aa1-303, Thermo Fisher) in assays based on the time-resolved fluorescence-resonance energy transfer (TR-FRET) methodology. The assays were carried out in 384-well low volume white plates in a reaction mixture containing SIK1 kinase, 110 uM ATP, 0.5 μM STK1 substrate and 0-10 μM compound in buffer containing 25 mM Tris, 0.01% Trition X-100, 0.5 mM EGTA, 5 mM MgCl2, 2.5 mM DTT, pH=7.5. The kinase was incubated with compounds for 60 minutes at room temperature and the reaction was initiated by the addition of ATP and STK1 substrate. After reaction at room temperature for 180 minutes, an equal volume of stop/detection solution was added according to the manufacture's instruction (CisBio Bioassays). The stop/detection solution contained STK Antibody-Cryptate and XL665-conjugated streptavidin (Cat: 62ST1PEC, Cisbio) in Detection Buffer (Cat: 62SDBRDF, Cisbio). Plates were sealed and incubated at room temperature for overnight, and the TR-FRET signals (ratio of fluorescence emission at 665 nm over emission at 620 nm with excitation at 337 nm wavelength) were recorded on a PHERAstar FS plate reader (BMG Labtech). Phosphorylation of STK1 substrate led to the binding of STK Antibody-Cryptate to the biotinylated SIK1 substrate, which places fluorescent donor (Eu^3+ crypate) in close proximity to the accepter (Streptavidin-XL665), thus resulting in a high degree of fluorescence resonance energy transfer from the donor fluorophore (at 620 nm) to the acceptor fluorophore (at 665 nm). […] The IC50 for each compound was derived from fitting the data to the four-parameter logistic equation by Dotmatics.

[2] = biological target: T2, SIK2 kinase (full length, Thermo Fisher) (Homo sapiens, UniProt Q9H0K1); test: Biochemical activities determination for SIK2 protein (TR-FRET); conditions: 80 uM ATP, 0.5 μM substrate
T2 construct: SIK2 kinase (full length, Thermo Fisher); purchased Thermo Fisher
Description: 2. Biochemical Activities Determination for SIK2 Protein
as §1, with “of SIK2” for “of SIK1”, “kinase (full length,” for “kinase (aa1-303,”, “containing SIK2” for “containing SIK1”, “kinase, 80” for “kinase, 110”, “μM […]” for “μM STK1”, “biotinylated STK1” for “biotinylated SIK1”

[3] = biological target: T3, SIK3 kinase (aa59-365, Thermo Fisher) (Homo sapiens, UniProt Q9Y2K2); test: Biochemical activities determination for SIK3 protein (TR-FRET); conditions: 125 uM ATP, 0.5 μM STK1 substrate
T3 construct: SIK3 kinase (aa59-365, Thermo Fisher); purchased Thermo Fisher
Description: 3. Biochemical Activities Determination for SIK3 Protein
Compounds were tested for inhibition of SIK3 kinase (aa59-365, Thermo Fisher) in assays based on the time-resolved fluorescence-resonance energy transfer (TR-FRET) methodology. The assays were carried out in 384-well low volume white plates in a reaction mixture containing SIK3 kinase, 125 uM ATP, 0.5 μM STK1 substrate and 0-10 μM compound in buffer containing 25 mM Tris, 0.01% Trition X-100, 0.5 mM EGTA, 5 mM MgCl2, 2.5 mM DTT, PH=7.5. The kinase was incubated with compound for 60 minutes at room temperature and the reaction was initiated by the addition of ATP and STK1 substrate. After reaction at room temperature for 180 minutes, an equal volume of stop/detection solution was added according to the manufacture's instruction (CisBio Bioassays). The stop/detection solution contained STK Antibody-Cryptate and XL665-conjugated streptavidin (Cat: 62ST1PEC, Cisbio) in Detection Buffer (Cat: 62SDBRDF, Cisbio). Plates were sealed and incubated at room temperature for overnight, and the TR-FRET signals (ratio of fluorescence emission at 665 nm over emission at 620 nm with excitation at 337 nm wavelength) were recorded on a PHERAstar FS plate reader (BMG Labtech). Phosphorylation of STK1 substrate led to the binding of STK Antibody-Cryptate to the biotinylated STK1 substrate, which places fluorescent donor (Eu^3+ crypate) in close proximity to the accepter (Streptavidin-XL665), thus resulting in a high degree of fluorescence resonance energy transfer from the donor fluorophore (at 620 nm) to the acceptor fluorophore (at 665 nm). […] The IC50 for each compound was derived from fitting the data to the four-parameter logistic equation by Dotmatics.

T2 sequence (Q9H0K1 whole entry): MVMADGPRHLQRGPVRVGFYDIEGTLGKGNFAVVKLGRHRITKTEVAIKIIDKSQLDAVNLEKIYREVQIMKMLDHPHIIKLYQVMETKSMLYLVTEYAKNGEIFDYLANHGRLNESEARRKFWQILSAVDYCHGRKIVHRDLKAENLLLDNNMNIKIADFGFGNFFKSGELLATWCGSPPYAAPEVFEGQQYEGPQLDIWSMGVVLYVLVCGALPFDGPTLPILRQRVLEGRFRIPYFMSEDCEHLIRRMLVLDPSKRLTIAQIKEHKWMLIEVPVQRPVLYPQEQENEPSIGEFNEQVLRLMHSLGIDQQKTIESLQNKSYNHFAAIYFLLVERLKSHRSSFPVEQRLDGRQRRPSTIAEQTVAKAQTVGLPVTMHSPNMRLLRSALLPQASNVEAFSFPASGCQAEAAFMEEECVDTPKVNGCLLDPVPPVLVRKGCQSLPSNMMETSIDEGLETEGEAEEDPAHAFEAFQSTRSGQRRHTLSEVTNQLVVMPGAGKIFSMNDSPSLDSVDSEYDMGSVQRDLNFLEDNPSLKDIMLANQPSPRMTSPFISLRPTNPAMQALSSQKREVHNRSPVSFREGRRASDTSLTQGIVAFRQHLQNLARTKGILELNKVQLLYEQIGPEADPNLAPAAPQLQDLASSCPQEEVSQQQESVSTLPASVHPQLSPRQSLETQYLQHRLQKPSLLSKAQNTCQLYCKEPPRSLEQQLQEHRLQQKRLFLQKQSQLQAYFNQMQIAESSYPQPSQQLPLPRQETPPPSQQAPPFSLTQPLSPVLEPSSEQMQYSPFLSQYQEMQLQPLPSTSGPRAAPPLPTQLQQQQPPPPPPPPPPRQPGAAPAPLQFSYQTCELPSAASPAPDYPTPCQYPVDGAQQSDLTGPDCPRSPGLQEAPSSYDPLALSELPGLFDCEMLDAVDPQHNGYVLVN
T3 sequence (Q9Y2K2 59-365): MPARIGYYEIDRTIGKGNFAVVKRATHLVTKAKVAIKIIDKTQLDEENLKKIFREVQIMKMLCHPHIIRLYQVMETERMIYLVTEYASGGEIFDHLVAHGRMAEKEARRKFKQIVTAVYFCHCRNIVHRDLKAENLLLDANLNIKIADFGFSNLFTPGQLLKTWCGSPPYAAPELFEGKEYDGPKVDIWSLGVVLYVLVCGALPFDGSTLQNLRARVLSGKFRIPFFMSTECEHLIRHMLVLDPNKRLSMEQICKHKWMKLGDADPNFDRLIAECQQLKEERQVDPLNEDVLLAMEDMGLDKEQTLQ
T1 sequence (P57059 1-303): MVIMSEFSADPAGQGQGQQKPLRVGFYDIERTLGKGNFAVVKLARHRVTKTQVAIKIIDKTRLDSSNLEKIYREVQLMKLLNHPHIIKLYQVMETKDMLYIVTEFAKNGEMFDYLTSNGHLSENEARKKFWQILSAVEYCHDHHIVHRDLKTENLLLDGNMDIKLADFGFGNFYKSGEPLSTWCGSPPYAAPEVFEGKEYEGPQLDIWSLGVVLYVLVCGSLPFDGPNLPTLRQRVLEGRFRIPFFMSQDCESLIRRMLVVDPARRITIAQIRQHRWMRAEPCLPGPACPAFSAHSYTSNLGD

| IC50 [1] [nM] | IC50 [2] [nM] | IC50 [3] [nM] | SMILES |
| --- | --- | --- | --- |
| 676 | 8 | 57 | O=C1c2c(cc(-c3coc4cc(-c5cnn(C6CCNCC6)c5)ccc34)cc2OC(F)F)CCN1CC(F)(F)F [Compound 43, 8-(difluoromethoxy)-6-(6-(1-(piperidin-4-yl)-1H-pyrazol-4-yl)benzofuran-3-yl)-2-(2,2,2-trifluoroethyl)-3,4-dihydroisoquinolin-1 (2H)-one] |
| 538 | 5.2 | 45 | CN1CC(n2cc(-c3ccc4c(-c5cc6c(c(OC(F)F)c5)C(=O)N(CC(F)(F)F)CC6)coc4c3)cn2)C1 [Compound 44, 8-(difluoromethoxy)-6-(6-(1-(1-methylazetidin-3-yl)-1H-pyrazol-4-yl)benzofuran-3-yl)-2-(2,2,2-trifluoroethyl)-3,4-dihydroisoquinolin-1 (2H)-one] |
| 560 | 9.8 | 28 | N#CCCN1CC(n2cc(-c3ccc4c(-c5cc6c(c(OC(F)F)c5)C(=O)N(CC(F)(F)F)CC6)coc4c3)cn2)C1 [Compound 45, 3-(3-(4-(3-(8-(difluoromethoxy)-1-oxo-2-(2,2,2-trifluoroethyl)-1,2,3,4-tetrahydroisoquinolin-6-yl)benzofuran-6-yl)-1H-pyrazol-1-yl)azetidin-1-yl) propanenitrile] |
| 430 | 7.8 | 36.1 | CN1CCC(n2cc(-c3ccc4c(-c5cc6c(c(OC(F)F)c5)C(=O)N(CC(F)(F)F)CC6)coc4c3)cn2)CC1 [Compound 46, 8-(difluoromethoxy)-6-(6-(1-(1-methylpiperidin-4-yl)-1H-pyrazol-4-yl)benzofuran-3-yl)-2-(2,2,2-trifluoroethyl)-3,4-dihydroisoquinolin-1 (2H)-one] |
| 335 | 3 | 33 | CN1CCC(n2cc(-c3ccc4c(-c5cc6c(c(OC(F)F)c5)C(=O)N(CC(F)(F)F)CC6)coc4c3)cn2)C1 (stereo not drawn) [Compound 47, 8-(difluoromethoxy)-6-(6-(1-(1-methylpyrrolidin-3-yl)-1H-pyrazol-4-yl)benzofuran-3-yl)-2-(2,2,2-trifluoroethyl)-3,4-dihydroisoquinolin-1 (2H)-one] |
| 524 | 11 | 63 | O=C1c2c(cc(-c3coc4cc(-c5cnn(C6CCNC6)c5)ccc34)cc2OC(F)F)CCN1CC(F)(F)F (stereo not drawn) [Compound 48, 8-(difluoromethoxy)-6-(6-(1-(pyrrolidin-3-yl)-1H-pyrazol-4-yl)benzofuran-3-yl)-2-(2,2,2-trifluoroethyl)-3,4-dihydroisoquinolin-1 (2H)-one] |
| 337 | 11 | 25 | COc1cc(-c2coc3cc(-c4cnn(C5CCOC5)c4)ccc23)cc2c1C(=O)N(CC(F)(F)F)CC2 (stereo not drawn) [Compound 49, 8-methoxy-6-(6-(1-(tetrahydrofuran-3-yl)-1H-pyrazol-4-yl)benzofuran-3-yl)-2-(2,2,2-trifluoroethyl)-3,4-dihydroisoquinolin-1 (2H)-one] |
| 347 | 17 | 34 | COc1cc(-c2coc3cc(-c4cnn(C5CCOCC5)c4)ccc23)cc2c1C(=O)N(CC(F)(F)F)CC2 [Compound 50, 8-methoxy-6-(6-(1-(tetrahydro-2H-pyran-4-yl)-1H-pyrazol-4-yl)benzofuran-3-yl)-2-(2,2,2-trifluoroethyl)-3,4-dihydroisoquinolin-1 (2H)-one] |
| 317 | 3.7 | 26 | COc1cc(-c2coc3cc(-c4cnn(C5CCN(C)C5)c4)ccc23)cc2c1C(=O)N(CC(F)(F)F)CC2 (stereo not drawn) [Compound 51, 8-methoxy-6-(6-(1-(1-methylpyrrolidin-3-yl)-1H-pyrazol-4-yl)benzofuran-3-yl)-2-(2,2,2-trifluoroethyl)-3,4-dihydroisoquinolin-1 (2H)-one] |
| 212 | 4.9 | 23 | COc1cc(-c2coc3cc(-c4cnn(C5CCN(C)CC5)c4)ccc23)cc2c1C(=O)N(CC(F)(F)F)CC2 [Compound 52, 8-methoxy-6-(6-(1-(1-methylpiperidin-4-yl)-1H-pyrazol-4-yl)benzofuran-3-yl)-2-(2,2,2-trifluoroethyl)-3,4-dihydroisoquinolin-1 (2H)-one] |
| 294 | 2.8 | 19 | COc1cc(-c2coc3cc(-c4cnn(C5CN(C)C5)c4)ccc23)cc2c1C(=O)N(CC(F)(F)F)CC2 [Compound 53, 8-methoxy-6-(6-(1-(1-methylazetidin-3-yl)-1H-pyrazol-4-yl)benzofuran-3-yl)-2-(2,2,2-trifluoroethyl)-3,4-dihydroisoquinolin-1 (2H)-one] |
| 326 | 6.9 | 19 | COc1cc(-c2coc3cc(-c4cnn(C5CN(CCC#N)C5)c4)ccc23)cc2c1C(=O)N(CC(F)(F)F)CC2 [Compound 54, 3-(3-(4-(3-(8-methoxy-1-oxo-2-(2,2,2-trifluoroethyl)-1,2,3,4-tetrahydroisoquinolin-6-yl)benzofuran-6-yl)-1H-pyrazol-1-yl)azetidin-1-yl) propanenitrile] |
| 301 | 3.9 | 18 | CN1CCC(n2cc(-c3ccc4c(-c5cc6c(c(OC(F)F)c5)C(=O)N(CC#N)CC6)coc4c3)cn2)CC1 [Compound 55, 2-(8-(difluoromethoxy)-6-(6-(1-(1-methylpiperidin-4-yl)-1H-pyrazol-4-yl)benzofuran-3-yl)-1-oxo-3,4-dihydroisoquinolin-2 (1H)-yl) acetonitrile] |
| 315 | 2.6 | 15 | CN1CCC(n2cc(-c3ccc4c(-c5cc6c(c(OC(F)F)c5)C(=O)N(CC#N)CC6)coc4c3)cn2)C1 (stereo not drawn) [Compound 56, 2-(8-(difluoromethoxy)-6-(6-(1-(1-methylpyrrolidin-3-yl)-1H-pyrazol-4-yl)benzofuran-3-yl)-1-oxo-3,4-dihydroisoquinolin-2 (1H)-yl) acetonitrile] |
| 405 | 2.7 | 17 | CN1CC(n2cc(-c3ccc4c(-c5cc6c(c(OC(F)F)c5)C(=O)N(CC#N)CC6)coc4c3)cn2)C1 [Compound 57, 2-(8-(difluoromethoxy)-6-(6-(1-(1-methylazetidin-3-yl)-1H-pyrazol-4-yl)benzofuran-3-yl)-1-oxo-3,4-dihydroisoquinolin-2 (1H)-yl) acetonitrile] |
